molecular target: T1, G1 APOL1 (Homo sapiens, UniProt O14791, I384M/S342G); test: Acute APOL1 Thallium Assay with inducible stable clones of HEK 293 cells; assay type: cell-based; details: HEK T-Rex tetracycline-inducible cells expressing G1 APOL1 (clone G1 DC3.25); inhibition of thallium flux rate
T1 construct: expressed in transfected cells
T1 sequence (O14791 28-398 S342G/I384M): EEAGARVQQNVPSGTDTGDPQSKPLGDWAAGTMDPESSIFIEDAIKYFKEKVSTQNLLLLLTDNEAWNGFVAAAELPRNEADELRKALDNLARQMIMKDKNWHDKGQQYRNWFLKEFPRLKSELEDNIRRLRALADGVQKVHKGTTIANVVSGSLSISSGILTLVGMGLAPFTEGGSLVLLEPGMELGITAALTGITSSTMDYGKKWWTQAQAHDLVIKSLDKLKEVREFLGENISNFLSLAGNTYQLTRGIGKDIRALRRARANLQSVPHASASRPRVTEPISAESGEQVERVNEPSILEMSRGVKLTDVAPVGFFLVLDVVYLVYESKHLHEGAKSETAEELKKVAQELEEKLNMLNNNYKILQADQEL
Text: Acute APOL1 Thallium Assay with Inducible Stable Clones of HEK 293 Cells
Apolipoprotein L1 (APOL1) proteins form potassium-permeable cation pores in the plasma membrane. APOL1 risk variants (G1 and G2) induce greater potassium flux than G0 in HEK293 cells. This assay exploits the permeability of thallium (T1+) through ligand-gated potassium channels. The dye produces a bright fluorescent signal upon binding to T1+ conducted through potassium channels. The intensity of the T1+ signal is proportional to the number of potassium channels in the open state. Therefore, it provides a functional indication of the potassium channel activities. During the initial dye-loading step, the T1+ indicator dye as an acetoxymethyl (AM) ester enters the cells through passive diffusion. Cytoplasm esterases cleave the AM ester and relieve its active thallium-sensitive form. The cells are then stimulated with T1+. The increase of fluorescence in the assay represents the influx of T1+ into the cell specifically through the potassium channel (i.e. through APOL1 pores), providing a functional measurement of potassium channel/pore activity. The Thallium assay is conducted with cells expressing G1 APOL1.
APOL1 Cell Line (HEK T-Rex Stable Inducible Cell Line) • HEK T-Rex System • Tetracycline (Tet) inducible mammalian expression system. • Stably express the Tet repressor to regulate transcription. • Expression under the full-length CMV promoter. • APOL1 stable inducible cell line Clone used: G1 DC3.25
Tissue Culture Media • Cell Culture Medium • DMEM +10% FBS +P/S +5 μg/mL blasticidin+1 μg/mL puromycin. • 500 mL DMEM +55 mL FBS +5 mL P/S +280 μL blasticidin S HCl (10 mg/mL)+56 μL puromycin (10 mg/mL). • Cell Assay Medium • DMEM with 2% FBS+pen strep.
Instruments and Equipment • Nuaire cell culture hood, Cat. No. 540-600 • 37° C./5% CO2 incubator link to robotic arm, Liconic: STX110 • Molecular Devices FLIPR^Tetra High throughput cellular screening system, Cat. No. FT0324, Molecular Devices • ThermoFisher MultiDrop 384, Cat. No. 5840300 • Biotek Microfill, Cat. No. ASF1000A-4145 • BioRad TC10 cell counter, Cat. No. 145-0010 Assay Procedures
Cells Scaled Up from Frozen Vials • APOL1 G1 3.25 (HEK293 T-Rex) frozen vials: 5 million cells per vial • Step 1, Day 1: Defrost frozen vial into T-225. • Step 2, Day 5: (when 85% confluent): Split one T-225 at 3×10^6 cells per flask. • Step 3, Day 8: Splits cells to set up for the assay plates as described below.
T-Rex APOL1 HEK cells are split twice per week to keep the confluence state below 85% of the culture flask surface area. Cells can be kept until passage 25. • Cell Culture Medium • DMEM high glucose +10% FBS, +P/S, +5 μg/mL blasticidin, +1 μg/mL puromycin. • 500 mL DMEM, +55 mL FBS, +5 mL P/S, +280 μL blasicidin 10 mg/mL, +56 μL Puromycin 10 mg/mL. • Assay Media • Opti-MEM reduced serum medium from Invitrogen.
Preparation of Cell Assay Plates • Culture medium is removed from the x cm^2 T-flask by aspiration. • The cell monolayer is rinsed with PBS 1× at room temperature. PBS is removed by aspiration. • Cells are trypsinized using Trypsin. • The flasks are incubated at room temperature for 2-3 minutes. • Complete DMEM medium is then added. Cell suspension is then transferred to a 50 mL Falcon polypropylene tube. • Cells are then counted using a Biorad TC10 cell counter and the required amount of cells are centrifuged at 1200 RPM for 5 minutes. Required amount is 1.3×10^6 cells/mL APOL1 T-Rex HEK cells. • The pellet is suspended in the assay medium. • Using the MultiDrop, add 20 μL to each well (corresponds to 26000 cells total per well) of a 384-well black, transparent, flat bottom Poly-D coated plate. • Tetracycline as prepared in the following section is added to the cells before plating to induce APOL1 expression. • Plates are left at room temperature for 20 to 30 minutes before incubation at 37° C. and 5% CO2. […]

| IC50 [nM] | SMILES |
| --- | --- |
| < 250 | O=C(CCc1c(-c2ccc(F)cc2)[nH]c2ccc(F)cc12)N[C@H]1CCNC1=O [Compound 47] |
| < 250 | O=C(CCc1c(-c2ccc(F)cc2)[nH]c2c(Cl)cc(F)cc12)N[C@@H]1C(=O)NC[C@H]1O [Compound 36] |
| < 250 | O=C(CCc1c(-c2ccccc2)[nH]c2c(F)c(F)ccc12)N[C@@H]1C(=O)NC[C@H]1O [Compound 59] |
| < 250 | O=C(CCc1c(-c2ccc(F)cc2)[nH]c2c(F)cc(Cl)cc12)N[C@@H]1C(=O)NC[C@H]1O [Compound 30] |
| < 250 | O=C(CCc1c(-c2ccccc2)[nH]c2ccc(F)cc12)N[C@H]1CCNC1=O [Compound 52] |
| < 250 | O=C(CCc1c(-c2ccccc2)[nH]c2c(F)cc(F)cc12)N[C@@H]1C(=O)NC[C@H]1O [Compound 26] |
| < 250 | O=C(CCc1c(-c2ccc(F)cc2)[nH]c2c(Cl)cccc12)N[C@@H]1C(=O)NC[C@H]1O [Compound 73] |
| > 1000 | N#Cc1cc(F)c2[nH]c(-c3ccc(F)cc3)c(CCC(=O)N[C@H]3CCNC3=O)c2c1 [Compound 28] |
| < 250 | O=C(CCc1c(-c2ccc(F)cc2)[nH]c2c(F)cccc12)N[C@@H]1C(=O)NC[C@H]1O [Compound 76] |
| < 250 | O=C(CCc1c(-c2ccc(F)cc2)[nH]c2c(Cl)cccc12)N[C@H]1CCNC1=O [Compound 72] |
| < 250 | O=C(CCc1c(-c2ccccc2)[nH]c2ccc(F)cc12)N[C@@H]1C(=O)NC[C@H]1O [Compound 51] |
| < 250 | Cc1c(F)c(F)cc2c(CCC(=O)N[C@@H]3C(=O)NC[C@H]3O)c(-c3ccc(F)cc3)[nH]c12 [Compound 98, 3-[5,6-difluoro-2-(4-fluorophenyl)-7-methyl-1H-indol-3-yl]-N-[(3S,4R)-4-hydroxy-2-oxo-pyrrolidin-3-yl]propanamide] |
| < 250 | O=C(CCc1c(-c2ccc(F)cc2)[nH]c2c(F)cccc12)N[C@H]1CCNC1=O [Compound 75] |
| < 250 | O=C(CCc1c(-c2ccc(OC(F)F)cc2)[nH]c2c(F)cc(F)cc12)N[C@@H]1C(=O)NC[C@H]1O [Compound 102] |
| < 250 | O=C(CCc1c(-c2cccc(F)c2)[nH]c2c(F)cc(F)cc12)N[C@@H]1C(=O)NC[C@H]1O [Compound 103] |
| 250 to 1000 | CN(C(=O)CCc1c(-c2ccc(F)cc2)[nH]c2ccc(F)cc12)C1CCNC1=O (stereo not drawn) [Compound 50] |
| < 250 | O=C(CCc1c(-c2ccc(OC(F)F)cc2)[nH]c2c(F)cc(F)cc12)N[C@H]1CCNC1=O [Compound 21] |
| < 250 | Cc1c(F)c(F)cc2c(CCC(=O)N[C@@H]3C(=O)NC[C@H]3O)c(-c3ccccc3)[nH]c12 [Compound 99, 3-(5,6-difluoro-7-methyl-2-phenyl-1H-indol-3-yl)-N-[(3S,4R)-4-hydroxy-2-oxo-pyrrolidin-3-yl]propanamide] |
| 250 to 1000 | O=C(CCc1c(-c2ccc(F)cc2)[nH]c2ccc(F)cc12)N[C@@H]1CCNC1=O [Compound 49] |
| < 250 | O=C1NC[C@@H](O)[C@@H]1NC(=O)C(F)(F)Cc1c(-c2ccc(F)cc2)[nH]c2c(F)cc(F)cc12 [Compound 95, 3-[5,7-difluoro-2-(4-fluorophenyl)-1H-indol-3-yl]-2,2-difluoro-N-[(3S,4R)-4-hydroxy-2-oxo-pyrrolidin-3-yl]propanamide] |
| < 250 | O=C(CCc1c(-c2ccc(F)cc2)[nH]c2c(F)cc(C(F)(F)F)cc12)N[C@@H]1C(=O)NC[C@H]1O [Compound 101, 3-[7-fluoro-2-(4-fluorophenyl)-5-(trifluoromethyl)-1H-indol-3-yl]-N-[(3S,4R)-4-hydroxy-2-oxo-pyrrolidin-3-yl]propanamide] |
| < 250 | O=C(CCc1c(-c2ccccc2)[nH]c2c(F)cccc12)N[C@@H]1C(=O)NC[C@H]1O [Compound 61] |
| < 250 | COc1cc(F)cc2c(CCC(=O)N[C@@H]3C(=O)NC[C@H]3O)c(-c3ccc(F)cc3)[nH]c12 [Compound 40] |
| < 250 | O=C(CCc1c(-c2ccc(F)cc2)[nH]c2ccc(F)cc12)NC1CCNC1=O (stereo not drawn) [Compound 48] |

| SMILES | IC50 [nM] |
| --- | --- |
| Cc1ccc(-c2[nH]c3ccccc3c2CCC(=O)N[C@@H]2C(=O)NC[C@H]2O)cc1 [Compound 124] | < 250 |
| O=C(CCc1c(-c2ccc(F)cc2)[nH]c2c(OC(F)F)cc(F)cc12)N[C@@H]1C(=O)NC[C@H]1O [Compound 107] | < 250 |
| Cc1cc(-c2[nH]c3ccccc3c2CCC(=O)N[C@@H]2C(=O)NC[C@H]2O)ccc1F [Compound 125] | < 250 |
| O=C(CCc1c(-c2ccc(F)c(F)c2)[nH]c2c(F)cc(F)cc12)N[C@@H]1C(=O)NC[C@H]1O [Compound 105] | < 250 |
| O=C(CCc1c(-c2ccc(C(F)F)cc2)[nH]c2ccccc12)N[C@@H]1C(=O)NC[C@H]1O [Compound 131, 3-[2-[4-(difluoromethyl)phenyl]-1H-indol-3-yl]-N-[(3S,4R)-4-hydroxy-2-oxo-pyrrolidin-3-yl]propanamide] | < 250 |
| O=C(CCc1c(-c2ccccc2)[nH]c2c(C(F)(F)F)cccc12)N[C@@H]1C(=O)NC[C@H]1O [Compound 112, N-[(3S,4R)-4-hydroxy-2-oxo-pyrrolidin-3-yl]-3-[2-phenyl-7-(trifluoromethyl)-1H-indol-3-yl]propanamide] | 250 to 1000 |
| O=C(CCc1c(-c2ccc(F)c(F)c2)[nH]c2ccccc12)N[C@@H]1C(=O)NC[C@H]1O [Compound 129, 3-[2-(3,4-difluorophenyl)-1H-indol-3-yl]-N-[(3S,4R)-4-hydroxy-2-oxo-pyrrolidin-3-yl]propanamide] | < 250 |
| O=C(CCc1c(-c2ccc(Cl)cc2)[nH]c2ccccc12)N[C@@H]1C(=O)NC[C@H]1O [Compound 128, 3-[2-(4-chlorophenyl)-1H-indol-3-yl]-N-[(3S,4R)-4-hydroxy-2-oxo-pyrrolidin-3-yl]propanamide] | < 250 |
| O=C(CCc1c(-c2ccc(C(F)(F)F)cc2)[nH]c2ccccc12)N[C@@H]1C(=O)NC[C@H]1O [Compound 123] | < 250 |
| O=C(CCc1c(-c2ccccc2)[nH]c2cc(F)ccc12)N[C@@H]1C(=O)NC[C@H]1O [Compound 109, 3-(6-fluoro-2-phenyl-1H-indol-3-yl)-N-[(3S,4R)-4-hydroxy-2-oxo-pyrrolidin-3-yl]propanamide] | < 250 |
| O=C(CCc1c(-c2ccc(OC(F)(F)F)cc2)[nH]c2ccccc12)N[C@@H]1C(=O)NC[C@H]1O [Compound 118] | < 250 |
| O=C(CCc1c(-c2ccc(F)cc2)[nH]c2ccc(C(F)(F)F)cc12)N[C@@H]1C(=O)NC[C@H]1O [Compound 108, 3-[2-(4-fluorophenyl)-5-(trifluoromethyl)-1H-indol-3-yl]-N-[(3S,4R)-4-hydroxy-2-oxo-pyrrolidin-3-yl]propanamide] | < 250 |
